Assay results from the supplement of paper PMC10702517.
± gives the standard deviation.

How the values were obtained:
[1] = chemical recovery from spiked human plasma; higher = better extraction; settings: pooled human plasma
[2] = chemical recovery by SPE of plasma after PDMS sampling; higher = better extraction; settings: pooled human plasma, extraction method: HLB SPE of plasma after PES
[3] = extraction method: SPE only (HLB 96-well), PES comparison experiment
[4] = extraction method: solvent precipitation (ACN + hexane)
[5] = extraction method: PES+SPE (3 d PDMS equilibration then HLB SPE)
[6] = extraction method: SPE only (HLB 96-well)
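Wherever chemical recovery by SPE of plasma after PDMS sampling is given: over 400 spiked chemicals quantified by LC-HRMS or GC-HRMS via internal standard calibration, recovery relative to spike mix added to unspiked plasma extract to correct matrix effects.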

Row | chemical recovery [1, 3] [%] | chemical recovery [1, 4] [%] | chemical recovery by SPE of plasma ([2]; equilibration time (d): 1) [%] | chemical recovery by SPE of plasma ([2]; equilibration time (d): 3) [%] | chemical recovery by SPE of plasma ([2]; equilibration time (d): 6) [%] | chemical recovery [1, 5] [%] | chemical recovery [1, 6] [%] | Structure (SMILES)
1 | 40.8 ± 7.5 | 77.2 ± 3.6 | 44.8 ± 3.8 | 50.8 ± 2.6 | 46.7 ± 1.6 | 44.5 ± 4.3 | 41.2 ± 2.9 | CCCCc1nc(Cl)c(CO)n1Cc1ccc(-c2ccccc2-c2nnn[nH]2)cc1 [Losartan]
2 | 38.1 ± 4.5 | 69.6 ± 4.1 | 0.287 ± 0.15 | 0.295 ± 0.096 | 0.145 ± 0.0059 |  |  | CCN(CCCCOC(=O)c1ccc(OC)c(OC)c1)C(C)Cc1ccc(OC)cc1 (stereo unspecified) [Mebeverine]
3 | 15.7 ± 2.9 | 54.2 ± 2.1 | 14.9 ± 5 | 16.4 ± 0.37 | 14.5 ± 3 | 60.9 ± 5.4 | 45 ± 7.8 | Cc1cccc(Nc2ccccc2C(=O)O)c1C [Mefenamic acid]
4 | 47.4 ± 4.1 | 81 ± 4.5 | 54.5 ± 12 | 57.9 ± 5 | 54.7 ± 7.3 |  | 48.2 ± 5.2 | Cc1cccc(C)c1N(Cn1cccn1)C(=O)C[S+]([O-])CC(=O)O (stereo unspecified) [Metazachlor BH 479-9]
5 |  |  | 44.3 ± 5.8 | 50.6 ± 2.1 | 43.4 ± 3 |  | 97.9 ± 4.8 | Cc1cccc(C)c1N(Cn1cccn1)C(=O)CS(=O)(=O)O [Metazachlor ESA]
6 | 41 ± 6 |  |  | 54.2 ± 4.1 | 47.4 ± 3 |  |  | CCc1cccc(C)c1N(C(=O)C(=O)O)C(C)C(=O)O (stereo unspecified) [Metolachlor CGA 357-704]
7 | 46.9 ± 4 | 69.1 ± 3.4 | 38.9 ± 5.3 | 42.9 ± 5.7 | 39.7 ± 6.8 | 0.65 ± 0.11 | 33.2 ± 2.9 | CCc1cccc(C)c1N(C(=O)CS(=O)(=O)O)C(C)COC (stereo unspecified) [Metolachlor ESA]

The next lines start with the compound.

Row | Structure (SMILES) | chemical recovery [1, 3] [%] | chemical recovery [1, 4] [%] | chemical recovery by SPE of plasma ([2]; equilibration time (d): 1) [%] | chemical recovery by SPE of plasma ([2]; equilibration time (d): 3) [%] | chemical recovery by SPE of plasma ([2]; equilibration time (d): 6) [%] | chemical recovery [1, 5] [%] | chemical recovery [1, 6] [%]
8 | CN(C)C(=O)C(CCN1CCC(O)(c2ccc(Cl)cc2)CC1)(c1ccccc1)c1ccccc1 [Loperamide] | 50.8 ± 7.4 | 73.1 ± 3.5 | 3.98 ± 0.26 | 3.93 ± 0.72 | 2.64 ± 0.097 |  | 
9 | Cc1cccc(C(=O)O)c1N(Cn1cccn1)C(=O)C(=O)O [Metazachlor BH479-12] | 37.9 ± 3.8 |  | 42 ± 6 | 49.95 ± 0.36 | 46.4 ± 4.8 |  | 
10 | Cn1ccnc1S [Methimazol] | 0.192 ± 0.098 | 44.8 ± 6.5 | 0.224 ± 0.23 | 0.612 ± 0.32 | 0.886 ± 0.81 | 0.467 ± 0.11 | 0.483 ± 0.27
11 | CCc1cccc(C)c1NC(=O)CS(=O)(=O)O [Metolachlor CGA 368-208] | 47.9 ± 5.2 |  | 37.9 ± 8.1 | 46.1 ± 2.7 | 43.1 ± 7.2 |  | 
12 | COc1c(C)c2c(c(O)c1C/C=C(\C)CCC(=O)O)C(=O)OC2 [Mycophenolic acid] | 53.5 ± 4.5 | 70.9 ± 5.3 | 48.6 ± 4.3 | 53 ± 2.7 | 46.3 ± 2 | 44.01 ± 0.38 | 45.5 ± 3.8
13 | CCCCCCCCCCCC[N+](C)(C)[O-] [N,N-Dimethyldodecylamine N-oxide] | 43.2 ± 7.2 |  | 23.5 ± 3.5 | 17.7 ± 3 | 9.46 ± 8.3 |  | 55.1 ± 13
